{
  "source": "ChEMBL document CHEMBL4364251",
  "about": "“Design, synthesis and biological evaluation of new quinoline derivatives as potential antitumor agents” (Eur J Med Chem, 2019)",
  "key": {"HCT-116 [1]": {"system": "HCT-116", "assay": "Induction of apoptosis in human HCT116 cells assessed as early apoptotic cells at 8 uM incubated for 24 hrs in presence of pan-caspase inhibitor z-VAD-FMK by annexin-V-FITC/PI staining based FACS analysis (reference value: 8.08%)", "assay_type": "functional"}, "HCT-116 [2]": {"system": "HCT-116", "assay": "Induction of apoptosis in human HCT116 cells assessed as early apoptotic cells incubated for 24 hrs by annexin-V-FITC/PI staining based FACS analysis", "assay_type": "functional, cell-based"}, "NCI-H1650": {"system": "NCI-H1650", "assay": "Antiproliferative activity against human NCI-H1650 cells incubated for 48 hrs by MTT assay", "assay_type": "functional, cell-based", "details": "NCI-H1650, 48 h"}, "HCT-116 [3]": {"system": "HCT-116", "assay": "Induction of apoptosis in human HCT116 cells assessed as viable cells at 8 uM incubated for 24 hrs by annexin-V-FITC/PI staining based FACS analysis (reference value: 94.35 to 94.43%)", "assay_type": "functional", "details": "HCT-116, 24 h, read-out: Activity"}, "HCT-116 [4]": {"system": "HCT-116", "assay": "Induction of apoptosis in human HCT116 cells assessed as necrotic cells at 8 uM incubated for 24 hrs in presence of pan-caspase inhibitor z-VAD-FMK by annexin-V-FITC/PI staining based FACS analysis (reference value: 0.6%)", "assay_type": "functional"}, "HCT-116 [5]": {"system": "HCT-116", "assay": "Induction of apoptosis in human HCT116 cells assessed as late apoptotic cells at 4 uM incubated for 24 hrs by annexin-V-FITC/PI staining based FACS analysis (reference value: 1.55 to 1.56%)", "assay_type": "functional"}, "HCT-116 [6]": {"system": "HCT-116", "assay": "Induction of morphological changes in human HCT116 cells assessed as cell shrinkage at 4 to 10 uM incubated for 24 hrs by phase-contrast microscopic method", "assay_type": "functional, cell-based"}, "HCT-116 [7]": {"system": "HCT-116", "assay": "Induction of apoptosis in human HCT116 cells assessed as necrotic cells at 4 uM incubated for 24 hrs by annexin-V-FITC/PI staining based FACS analysis (reference value: 0.71 to 2.26%)", "assay_type": "functional"}, "HCT-116 [8]": {"system": "HCT-116", "assay": "Induction of apoptosis in human HCT116 cells deficient in ATG7 assessed as viable cells at 8 uM incubated for 24 hrs by annexin-V-FITC/PI staining based FACS analysis (reference value: 85.27%)", "assay_type": "functional", "details": "HCT-116, 24 h, read-out: Activity"}, "RKO [9]": {"system": "RKO", "assay": "Growth inhibition of human RKO cells at 1 uM by CCK-8 assay", "assay_type": "functional, cell-based", "details": "TDE = time-dependent effect"}, "[10]": {"assay": "Toxicity in BALB/c mouse xenografted with mouse […] cells at 80 mg/kg administrated once every three days for 21 days", "assay_type": "organism-based", "details": "in vivo, 504 h"}, "HCT-116 [11]": {"system": "HCT-116", "assay": "Induction of apoptosis in human HCT116 cells assessed as early apoptotic cells at 4 uM incubated for 24 hrs in presence of pan-caspase inhibitor z-VAD-FMK by annexin-V-FITC/PI staining based FACS analysis (reference value: 8.08%)", "assay_type": "functional"}, "RKO [12]": {"system": "RKO", "assay": "Growth inhibition of human RKO cells incubated for 24 hrs by CCK-8 assay", "assay_type": "functional, cell-based"}, "HCT-116 [13]": {"system": "HCT-116", "assay": "Induction of apoptosis in human HCT116 cells assessed as increase in cleaved PARP protein expression level at 4 to 8 uM incubated for 24 hrs by Western blot analysis", "assay_type": "functional, cell-based"}, "[14]": {"assay": "Antitumour activity against mouse […] cells implanted in BALB/c mouse assessed inhibition in tumour growth at 80 mg/kg administered once every three days for 21 days post tumour implantation relative to control", "assay_type": "functional", "details": "read-out: TGI"}, "HCT-116 [15]": {"system": "HCT-116", "assay": "Growth inhibition of human HCT116 cells incubated for 24 hrs by CCK-8 assay", "assay_type": "functional, cell-based"}, "HCT-116 [16]": {"system": "HCT-116", "assay": "Induction of apoptosis in human HCT116 cells assessed as viable cells at 4 uM incubated for 24 hrs by annexin-V-FITC/PI staining based FACS analysis (reference value: 94.35 to 94.43%)", "assay_type": "functional", "details": "HCT-116, 24 h, read-out: Activity"}, "HCT-116 [17]": {"system": "HCT-116", "assay": "Induction of apoptosis in human HCT116 cells assessed as early apoptotic cells at 8 uM incubated for 24 hrs by annexin-V-FITC/PI staining based FACS analysis (reference value: 1.77 to 3.38%)", "assay_type": "functional"}, "HCT-116 [18]": {"system": "HCT-116", "assay": "Induction of apoptosis in human HCT116 cells assessed as necrotic cells at 8 uM incubated for 24 hrs by annexin-V-FITC/PI staining based FACS analysis (reference value: 0.71 to 2.26%)", "assay_type": "functional"}, "HCT-116 [19]": {"system": "HCT-116", "assay": "Induction of apoptosis in human HCT116 cells assessed as late apoptotic cells at 8 uM incubated for 24 hrs by annexin-V-FITC/PI staining based FACS analysis (reference value: 1.55 to 1.56%)", "assay_type": "functional"}, "HCT-116 [20]": {"system": "HCT-116", "assay": "Induction of apoptosis in human HCT116 cells assessed as late apoptotic cells at 4 uM incubated for 24 hrs in presence of pan-caspase inhibitor z-VAD-FMK by annexin-V-FITC/PI staining based FACS analysis (reference value: 6.04%)", "assay_type": "functional"}, "HCT-116 [21]": {"system": "HCT-116", "assay": "Antiproliferative activity against human HCT116 cells incubated for 48 hrs by MTT assay", "assay_type": "functional, cell-based", "details": "HCT-116, 48 h"}, "HCT-116 [22]": {"system": "HCT-116", "assay": "Antiproliferative activity against human HCT116 expressing p53 (-/-) at 1 to 16 uM assessed as decrease cell viability incubated for 24 hrs by CCK-8 assay", "assay_type": "functional, cell-based"}, "A2780": {"system": "A2780", "assay": "Antiproliferative activity against human A2780 cells incubated for 48 hrs by MTT assay", "assay_type": "functional, cell-based", "details": "A2780, 48 h"}, "Mus musculus": {"system": "Mus musculus", "assay": "Antitumour activity against mouse […] cells implanted in BALB/c mouse assessed as decrease in tumour volume at 80 mg/kg administered once every three days for 21 days post tumour implantation and measured at day 13 by caliper method", "assay_type": "functional, organism-based"}, "HCT-116 [23]": {"system": "HCT-116", "assay": "Induction of autophagy in human HCT116 cells deficient in ATG5 assessed as increase in LC3B-2 protein expression level at 4 to 8 uM by Western blot analysis", "assay_type": "functional, cell-based"}, "HCT-116 [24]": {"system": "HCT-116", "assay": "Induction of apoptosis in human HCT116 cells deficient in ATG7 assessed as early apoptotic cells at 8 uM incubated for 24 hrs by annexin-V-FITC/PI staining based FACS analysis (reference value: 2.32%)", "assay_type": "functional"}, "HCT-116 [25]": {"system": "HCT-116", "assay": "Induction of apoptosis in human HCT116 cells assessed as increase in cleaved PARP protein expression level at 4 to 8 uM incubated for 24 hrs in presence of pan-caspase inhibitor z-VAD-FMK by Western blot analysis", "assay_type": "functional, cell-based"}, "RKO [26]": {"system": "RKO", "assay": "Inhibition of colony formation in human RKO cells incubated for 24 hrs followed by compound washout and subsequent incubation for 10 to 14 days by crystal violet staining based assay", "assay_type": "functional, cell-based"}, "BGC-823": {"system": "BGC-823", "assay": "Antiproliferative activity against human BGC823 cells incubated for 48 hrs by MTT assay", "assay_type": "functional, cell-based", "details": "BGC-823, 48 h"}, "HeLa": {"system": "HeLa", "assay": "Antiproliferative activity against human HeLa cells incubated for 48 hrs by MTT assay", "assay_type": "functional, cell-based"}, "HCT-116 [27]": {"system": "HCT-116", "assay": "Induction of apoptosis in human HCT116 cells assessed as late apoptotic cells incubated for 24 hrs by annexin-V-FITC/PI staining based FACS analysis", "assay_type": "functional, cell-based"}, "HCT-116 [28]": {"system": "HCT-116", "assay": "Induction of autophagy in human HCT116 cells assessed as increase in LC3B-2 protein expression level at 6 uM by Western blot analysis", "assay_type": "functional, cell-based", "details": "TDE = time-dependent effect"}, "RKO [29]": {"system": "RKO", "assay": "Antiproliferative activity against human RKO cells incubated for 48 hrs by MTT assay", "assay_type": "functional, cell-based"}, "HCT-116 [30]": {"system": "HCT-116", "assay": "Induction of apoptosis in human HCT116 cells assessed as late apoptotic cells at 8 uM incubated for 24 hrs in presence of pan-caspase inhibitor z-VAD-FMK by annexin-V-FITC/PI staining based FACS analysis (reference value: 6.04%)", "assay_type": "functional"}},
  "note": "The source made the active and inactive calls. No cut-off for these calls is given here.",
  "data": [
    {"smiles": "COc1cccc(Nc2ccnc3cc(OCCCc4ccccc4)ccc23)c1", "values": [
      {"measurement": "Activity", "setting": "HCT-116 [1]", "value": 19.42, "unit": "%"},
      {"measurement": "Activity", "setting": "HCT-116 [2]", "value": "Dose-dependent effect"},
      {"measurement": "IC50", "setting": "NCI-H1650", "value": 6.3, "unit": "µM"},
      {"measurement": "viability at 8 µM", "setting": "HCT-116 [3]", "value": "60.5 to 62.2", "unit": "%"},
      {"measurement": "Activity", "setting": "HCT-116 [4]", "value": 1.71, "unit": "%"},
      {"measurement": "Activity", "setting": "HCT-116 [5]", "value": 11.64, "unit": "%"},
      {"measurement": "Activity", "setting": "HCT-116 [6]", "value": "Active"},
      {"measurement": "Activity", "setting": "HCT-116 [7]", "value": 0.95, "unit": "%"},
      {"measurement": "viability at 8 µM", "setting": "HCT-116 [8]", "value": 76.7, "unit": "%"},
      {"measurement": "growth inhibition (GI)", "setting": "RKO [9]", "value": "Tde"},
      {"measurement": "Activity", "setting": "[10]", "value": "Non-Toxic"},
      {"measurement": "Activity", "setting": "HCT-116 [11]", "value": 15.45, "unit": "%"},
      {"measurement": "growth inhibition (GI)", "setting": "RKO [12]", "value": "Dose-dependent effect"},
      {"measurement": "Activity", "setting": "HCT-116 [13]", "value": "Active"},
      {"measurement": "inhibition in vivo at 80 mg/kg", "setting": "[14]", "value": 82.1, "unit": "%"},
      {"measurement": "growth inhibition (GI)", "setting": "HCT-116 [15]", "value": "Dose-dependent effect"},
      {"measurement": "viability at 4 µM", "setting": "HCT-116 [16]", "value": 75.4, "unit": "%"},
      {"measurement": "Activity", "setting": "HCT-116 [17]", "value": "17.9 - 18.35%"},
      {"measurement": "Activity", "setting": "HCT-116 [18]", "value": "2.19 - 5.82%"},
      {"measurement": "Activity", "setting": "HCT-116 [19]", "value": "15.38 - 17.66%"},
      {"measurement": "Activity", "setting": "HCT-116 [20]", "value": 8.17, "unit": "%"},
      {"measurement": "IC50", "setting": "HCT-116 [21]", "value": 2.56, "unit": "µM"},
      {"measurement": "Activity", "setting": "HCT-116 [22]", "value": "Active"},
      {"measurement": "IC50", "setting": "A2780", "value": 3.46, "unit": "µM"},
      {"measurement": "Activity", "setting": "Mus musculus", "value": "Active"},
      {"measurement": "Activity", "setting": "HCT-116 [23]", "value": "inactive"},
      {"measurement": "Activity", "setting": "HCT-116 [24]", "value": 5.26, "unit": "%"},
      {"measurement": "Activity", "setting": "HCT-116 [25]", "value": "Active"},
      {"measurement": "inhibition", "setting": "RKO [26]", "value": "Dose-dependent effect"},
      {"measurement": "IC50", "setting": "BGC-823", "value": 9.08, "unit": "µM"},
      {"measurement": "IC50", "setting": "HeLa", "value": 2.71, "unit": "µM"},
      {"measurement": "Activity", "setting": "HCT-116 [27]", "value": "Dose-dependent effect"},
      {"measurement": "Activity", "setting": "HCT-116 [28]", "value": "Tde"},
      {"measurement": "IC50", "setting": "RKO [29]", "value": 3.67, "unit": "µM"},
      {"measurement": "Activity", "setting": "HCT-116 [30]", "value": 16, "unit": "%"}
    ]}
  ]
}
